Data reported in patent publication EP1206474B1, “SULFONYLPHENYLPYRAZOLE COMPOUNDS USEFUL AS COX-2 INHIBITORS” (ABBOTT LABORATORIES, priority 1999, dated 2001).
Values belong to the molecule of their own block, whether it stands above or below them.

Key:
[1] = target: T1, recombinant human Cox-1 (r-hu Cox-1) (Homo sapiens, UniProt P23219); test: Recombinant human PGHS-1 (r-hu Cox-1) enzyme assay, PGE2 by EIA; type: biochemical; conditions: read-out: r-hu COX1 percent inhibition
T1 construct: made in house; host or cells: baculovirus/Sf9 insect cells (microsomes)
T1 sequence (P23219 24-599): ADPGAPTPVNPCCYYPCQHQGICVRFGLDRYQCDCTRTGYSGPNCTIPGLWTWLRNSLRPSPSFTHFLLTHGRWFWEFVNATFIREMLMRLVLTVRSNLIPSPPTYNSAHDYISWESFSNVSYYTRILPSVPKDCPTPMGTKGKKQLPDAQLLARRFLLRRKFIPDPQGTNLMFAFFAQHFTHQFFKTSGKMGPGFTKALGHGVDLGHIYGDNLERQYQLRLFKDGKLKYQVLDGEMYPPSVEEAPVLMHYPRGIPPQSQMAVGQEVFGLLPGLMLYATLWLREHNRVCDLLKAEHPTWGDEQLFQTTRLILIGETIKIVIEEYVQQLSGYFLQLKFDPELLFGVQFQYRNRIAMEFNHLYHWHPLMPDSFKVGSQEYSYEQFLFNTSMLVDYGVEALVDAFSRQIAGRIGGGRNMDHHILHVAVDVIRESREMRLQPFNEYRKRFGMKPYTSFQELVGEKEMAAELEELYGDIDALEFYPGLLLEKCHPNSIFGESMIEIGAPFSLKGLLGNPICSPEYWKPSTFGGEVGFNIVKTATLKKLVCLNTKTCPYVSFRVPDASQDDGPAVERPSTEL
Procedure: (§1) To compare the mean responses of the treatment groups, analysis of variance was applied. Percent inhibition values were determined by comparing the individual treatment mean values to the mean of the control group. Linear regression was used to estimate IC50's/ED50's in appropriate assays.
(§2) EIA reagents for prostaglandin determination were purchased from Perseptive Diagnostics, (Cambridge, MA). Prostaglandin E2 (PGE2) levels in lavage fluids were determined after the samples were dried under nitrogen and reconstituted with assay buffer. PGE2 levels in enzyme assays or cell culture media were measured against standards prepared in the same milieu. The immunoassays were conducted as recommended by the manufacturer. The EIA was conducted in 96 well microtiter plates (Nunc Roskilde, Denmark) and optical density was measured using a microplate reader (Vmax, Molecular Devices Corp., Menlo Park, CA).
(§3) Inhibition of prostaglandin biosynthesis in vitro was evaluated using recombinant human Cox-1 (r-hu Cox-1) and Cox-2 (r-hu Cox-2) enzyme assays. […] The reaction was allowed to run for 2.5 minutes at room temperature prior to quenching with HCl and neutralization with NaOH. PGE2 production in the presence and absence of the drug was determined by EIA analysis. The EIA was conducted in 96 well microtiter plates (Nunc Roskilde, Denmark) and optical density was measured using a microplate reader (Vmax, Molecular Devices Corp., Menlo Park, CA). EIA reagents for prostaglandin determination were purchased from Perseptive Diagnostics (Cambridge, MA). PGE2 levels were measured against standards prepared in the same milieu. The immunoassays were conducted as recommended by the manufacturer. The compounds are designated by the Example Number. […] Values for Cox-2 inhibition that are parenthetical indicate IC50 values.

[2] = system: Human amnionic WISH cells; test: IL-1β induced PGE2 production in WISH cells; type: cell-based; conditions: IL-1β induced PGE2, 18 hour incubation; for inhibition at 1 µM: at 1000 nM; for IC50: parenthetical value, read-out: WISH (parenthetical value, IC50 by analogy with Table 1)
Procedure: as §2
Human amnionic WISH cells were grown to 80% confluence in 48 well plates. Following removal of the growth medium and two washings with Gey's Balanced Salt Solution, 5 ng IL-1β/ml (UBI, Lake Placid, NY) was added to the cells with or without test compound in DMSO (0.01% v/v) in Neuman-Tytell Serumless Medium (GIBCO, Grand Island, NY). Following an 18 hour incubation to allow for the maximal induction of PGHS-2, the conditioned medium was removed and assayed for PGE2 content by EIA analysis as described above.
WISH cell values indicate percent inhibition at the particular nanomolar dose level.

[3] = target: T2, recombinant human Cox-2 (r-hu Cox-2) (Homo sapiens, UniProt P35354); test: Recombinant human PGHS-2 (r-hu Cox-2) enzyme assay, PGE2 by EIA; type: biochemical; conditions: for IC50: parenthetical values indicate IC50, read-out: r-hu COX2 IC50 (parenthetical values); for inhibition at 10 µM: at 10000 nM; for inhibition at 10 µM / inhibition at 0.1 µM: read-out: r-hu COX2 percent inhibition; for inhibition at 0.1 µM: at 100 nM
T2 construct: made in house; host or cells: baculovirus/Sf9 insect cells (microsomes)
T2 sequence (P35354 18-604): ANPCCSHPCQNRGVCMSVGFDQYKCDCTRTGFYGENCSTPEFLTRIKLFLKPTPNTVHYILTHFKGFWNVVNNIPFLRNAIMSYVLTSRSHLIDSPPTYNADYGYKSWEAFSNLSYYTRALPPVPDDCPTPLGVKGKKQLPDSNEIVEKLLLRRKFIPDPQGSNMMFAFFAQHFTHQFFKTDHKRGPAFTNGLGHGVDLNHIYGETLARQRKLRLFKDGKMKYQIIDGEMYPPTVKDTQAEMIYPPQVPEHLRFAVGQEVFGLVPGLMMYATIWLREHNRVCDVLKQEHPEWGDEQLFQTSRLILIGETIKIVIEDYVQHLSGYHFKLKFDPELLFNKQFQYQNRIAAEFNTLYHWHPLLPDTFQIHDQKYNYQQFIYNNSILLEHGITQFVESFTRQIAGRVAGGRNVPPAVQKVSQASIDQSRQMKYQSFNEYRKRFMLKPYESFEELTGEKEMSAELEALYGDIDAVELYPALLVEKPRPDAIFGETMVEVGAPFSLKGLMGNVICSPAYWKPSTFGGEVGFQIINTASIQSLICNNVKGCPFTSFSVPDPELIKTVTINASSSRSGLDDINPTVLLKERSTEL
Procedure: as §1, §2, §3

[4] = system: male adrenalectomized Sprague-Dawley rats; test: Rat carrageenan pleural inflammation (CIP) model; type: in vivo; conditions: 10 milligrams per kilogram body weight, oral, 30 minutes prior to carrageenan; lavage four hours later; inhibition of prostaglandin biosynthesis
Procedure: For oral administration, test compounds were suspended on the day of use in 100% polyethyleneglycol (PEG 400) with a motorized homogenizer equipped with a Teflon-coated pestle (TRI-R Instrument, Jamaica, NY).
as §1, §2
Pleural inflammation was induced in male adrenalectomized Sprague-Dawley rats following the method of Vinegar et al., Fed. Proc. 1976, 35, 2447-2456. […] Eicosanoids were determined by EIA as described above. […]

[5] = Homo sapiens, read-out: WISH percent inhibition

Structure (SMILES): CS(=O)(=O)c1ccc(-c2nn3c(c2-c2ccc(F)cc2)OCCC3)cc1 [Example 1, 3-(4-Fluorophenyl)-2-(4-(methylsulphonyl)phenyl)-6,7-dihydro-5H-pyrazolo[5,1-b][1,3]oxazine]
inhibition at 100 µM [1]: 4%
inhibition at 1 µM [2, 5]: 19%
IC50 [3]: 720 nM

Structure (SMILES): CS(=O)(=O)c1ccc(-c2nn3c(c2-c2ccc(F)cc2)OCCCC3)cc1 [Example 2, 3-(4-Fluorophenyl)-2-(4-(methylsulphonyl)phenyl)-5,6,7,8-tetrahydropyrazolo[5,1-b][1,3]oxazepine]
inhibition at 100 µM [1]: 9%
inhibition at 10 µM [3]: 57%

Structure (SMILES): CS(=O)(=O)c1ccc(-c2nn3c(c2-c2ccc(F)cc2)OCc2ccccc2C3)cc1 [Example 3]
inhibition at 100 µM [1]: 20%
inhibition at 0.01 µM ([2]; Homo sapiens, at 10 nM, read-out: WISH percent inhibition): 43%
CIP Inh @10mpk [4]: 3%
IC50 [3]: 90 nM

Structure (SMILES): CS(=O)(=O)c1ccc(-c2nn3c(c2-c2ccc(F)cc2)OCC=CC3)cc1 [Example 4, 3-(4-Fluorophenyl)-2-(4-methylsulponylphenyl) -5,8-dihydropyrazolo[5,1-b][1,3]oxazepine]
inhibition at 100 µM [1]: 12%
inhibition at 10 µM [3]: 62%

Structure (SMILES): CS(=O)(=O)c1ccc(-c2nn3c(c2-c2ccc(F)cc2)OCC3)cc1 [Example 5, 7-(4-Fluorophenyl)-6-(4-(methylsulphonyl)phenyl)-2,3-dihydropyrazolo[5,1-b][1,3]oxazole]
inhibition at 1 µM [2, 5]: 33%

Structure (SMILES): CS(=O)(=O)c1ccc(-c2nn3c(c2-c2ccc(F)cc2)OCc2ccccc2-3)cc1 [Example 6, 3-(4-Fluorophenyl)-2-(4-(methylsulphonyl)phenyl)-5H-pyrazolo[1,5-b][1,3]-benzoxazine]
inhibition at 100 µM [1]: 25%
inhibition at 0.1 µM [3]: 82%

Structure (SMILES): CS(=O)(=O)c1ccc(-c2nn3c(-c4ccccc4)coc3c2-c2ccc(F)cc2)cc1 [Example 37, 7-(4-Fluorophenyl)-6-(4-(methylsulphonyl)phenyl)-3-phenylpyrazolo[5,1-b][1,3]oxazole]
CIP Inh @10mpk [4]: 0%

Structure (SMILES): CS(=O)(=O)c1ccc(-c2nn3c(C4C5CC6CC(C5)CC4C6)coc3c2-c2ccc(F)cc2)cc1 (stereo not shown) [Example 39, 3-(2-Adamantyl)-7-(4-fluorophenyl)-6-(4-(methylsulphonyl)phenyl)pyrazolo[5,1-b][1,3]oxazole]
WISH percent inhibition ([2]; at 0.1 (nM)): 38%
WISH percent inhibition ([2]; at 1 (nM)): 95%

Structure (SMILES): Cc1oc2c(-c3ccc(F)cc3)c(-c3ccc(S(C)(=O)=O)cc3)nn2c1-c1ccccc1 [Example 41, 7-(4-Fluorophenyl)-2-methyl-6-(4-(methylsulphonyl)phenyl)-3-phenylpyrazolo[5,1-b][1,3]oxazole]
WISH percent inhibition ([2]; at 0.1 (nM)): 33%
WISH percent inhibition ([2]; at 1 (nM)): 52%

Structure (SMILES): CS(=O)(=O)c1ccc(-c2nn3c4c(oc3c2-c2ccc(F)cc2)CCCC4)cc1 [Example 42, 3-(4-Fluorophenyl)-2-(4-(methylsulphonyl)phenyl)-5,6,7,8-tetrahydropyrazolo[5,1-b][1,3]benzoxazole]
inhibition at 100 µM [1]: 23%
WISH percent inhibition ([2]; at 0.01 (nM)): 37%
WISH percent inhibition ([2]; at 0.1 (nM)): 81%
inhibition at 0.1 µM [3]: 86%

Structure (SMILES): CC=CC(=O)c1oc2c(-c3ccc(F)cc3)c(-c3ccc(S(C)(=O)=O)cc3)nn2c1C [Example 58, 1-[7-(4-Fluorophenyl)-3-methyl-6-(4-(methylsulphonyl)phenyl)pyrazolo[5,1-b][1,3]oxazol-2-yl]but-2-en-1-one]
WISH percent inhibition ([2]; at 0.1 (nM)): 84 @ 0.1%

The next lines start with the values.

IC50 ([2]; Homo sapiens): 0.2 nM
Structure (SMILES): Cc1c(C#N)oc2c(-c3ccc(F)cc3)c(-c3ccc(S(C)(=O)=O)cc3)nn12 [Example 54, 2-Cyano-7-(4-fluorophenyl)-3-methyl-6-(4-(methylsulphonyl)phenyl)pyrazolo[5,1-b][1,3]oxazole]

inhibition at 10 µM ([1]; at 10 µM): 99%
inhibition at 0.1 µM [3]: 88%
Structure (SMILES): CC(C)(C)c1coc2c(-c3ccc(F)cc3)c(-c3ccc(S(N)(=O)=O)cc3)nn12 [Example 55]

inhibition at 100 µM [1]: 96%
inhibition at 0.1 µM [3]: 51%
Structure (SMILES): Cc1c(C#N)oc2c(-c3ccc(F)cc3)c(-c3ccc(S(N)(=O)=O)cc3)nn12 [Example 59, 6-(4-(Aminosulphonyl)phenyl)-2-cyano-7-(4-Fluorophenyl)-3-methyl-pyrazolo[5,1-b][1,3]oxazole]

inhibition at 100 µM [1]: 23%
inhibition at 0.1 µM [3]: 94%
Structure (SMILES): CCc1coc2c(-c3ccc(F)cc3)c(-c3ccc(S(C)(=O)=O)cc3)nn12 [Example 61, 3-Ethyl-7-(4-fluorophenyl)-6-(4-(methylsulphonyl)phenyl)pyrazolo[5,1-b][1,3]oxazole]

inhibition at 100 µM [1]: 91%
IC50 ([2]; Homo sapiens): 0.21 nM
IC50 [3]: 2 nM
Structure (SMILES): CCc1coc2c(-c3ccc(F)cc3)c(-c3ccc(S(N)(=O)=O)cc3)nn12 [Example 62, 6-(4-(aminosulphonyl)phenyl)-3-Ethyl-7-(4-fluorophenyl)pyrazolo[5,1-b][1,3]oxazole]
